According to patent US4511577A, “Derivatives of benzoic acid” (Media Research s.r.l., priority 1983, dated 1985):

Experiments:
[1] = plasmatic kinetics in rat after oral administration
Procedure: The plasmatic kynetic of acetylsalicylic acid in rat was compared after oral administration of equimolecular doses of MR-Y134 and […] (466 mg/kg MR-Y134 and 300 mg/kg ASA respectively).
The compounds were both administered in the form of 2% gum arabic suspension to rats fastened for 12 hours. Each animal was administered with 1.0 ml of solution.
The rats were killed at the following times: 1, 2, 4, 8, 12 hours after the administration of the compounds.
The blood sample was drawn in heparin.

[2] = system: carrageenin induced oedema in rat paw; assay: carrageenin induced oedema in rat paw (antiinflammatory activity); type: in vivo; conditions: 75 mg/kg per os; for AREA Δ % (paw volume): control 243.3; for paw average volume, 30' / paw average volume, 1h / paw average volume, 2h / paw average volume, 3h / paw average volume, 6h / paw average volume, Basal: 5 animals
Procedure: The antiinflammatory activity of MR-[…] in comparison with acetylsalicylic acid was determined by the test of carrageenin induced oedema in rat paw, according to the method of Winter, […], Ness. (Proc. Soc. Exp. Biol. Med., 111, 544-547, 1962). […] The paw volume was determined using an apparatus supplied by U. Basile Ltd.

[3] = tail-flick test (analgesic activity); type: in vivo; conditions: 75 mg/kg os; for AREA Δ % (tail-flick): control 170.45
Procedure: The analgesic activity was determined according to the tail-flick test, employing an apparatus supplied by Socrel Ltd., Milano, Italy.

[4] = system: gastric mucosa; assay: gastro-injuring action on the gastric mucosa; type: in vivo, Male Sprague-Dawley rats; conditions: oral, equimolecular doses, rats fasted 48 hours
Procedure: The action on the gastric mucosa of MR-Y134 in comparison with equimolecular doses of ASA was determined according to the method described by Pisanti and Volterra (I1 Farmaco, vol. 25, (2), 105).
The products were administered orally.
Male Sprague-Dawley rats were used fastened for 48 hours with water ad libitum.
The control group was administered with the solvent only (1% carboxymethylcellulose).

Structure (SMILES)	% inhibition versus control (area, paw oedema) [2] [%]	AREA Δ % (paw volume) [2]	Percent variation of paw volume with respect to 0 time, 30' [2] [%]	paw average volume, 30' [2] [mL]	Percent variation of paw volume with respect to 0 time, 1h [2] [%]	paw average volume, 1h [2] [mL]	Percent variation of paw volume with respect to 0 time, 2h [2] [%]	paw average volume, 2h [2] [mL]	Percent variation of paw volume with respect to 0 time, 3h [2] [%]	paw average volume, 3h [2] [mL]	Percent variation of paw volume with respect to 0 time, 6h [2] [%]	paw average volume, 6h [2] [mL]	paw average volume, Basal [2] [mL]	% inhibition versus control (area, tail-flick) [3] [%]	AREA Δ % (tail-flick) [3]	Percent variation of reaction time with respect to 0 time, 1h [3] [%]	Reaction time, 1h [3] [s]	Percent variation of reaction time with respect to 0 time, 3h [3] [%]	Reaction time, 3h [3] [s]	Percent variation of reaction time with respect to 0 time, 6h [3] [%]	other results
O=C([O-])c1ccccc1O.[Na+] [SODIUM SALICYLATE, sodium salicylate]	–	–	–	–	–	–	–	–	–	–	–	–	–	–	–	–	–	–	–	–	time of plasma peak ([1]; oral, equimolecular doses): second hour; concentration at 1 h ([1]; rat, in vivo, po, 300 mg/kg): 362 µg/mL; concentration at 2 h ([1]; rat, in vivo, po, 300 mg/kg): 534 µg/mL; concentration at 4 h ([1]; rat, in vivo, po, 300 mg/kg): 470 µg/mL; concentration at 8 h ([1]; rat, in vivo, po, 300 mg/kg): 456 µg/mL; concentration at 12 h ([1]; rat, in vivo, po, 300 mg/kg): 325 µg/mL
CC(=O)Oc1ccccc1C(=O)O [ASA, acetylsalicylic acid]	53.41	113.35 Δ %	9.71	1.69	13.57	1.75	16.30	1.79	17.71	1.81	62.13	2.49	1.55	16.61	142.13 Δ %	23.01	7.16	26.66	6.82	27.31	Reaction time, 6h [3]: 6.76 s; Reaction time, Basal [3]: 9.30 s
O=C(Oc1ccccc1C(=O)O)c1cccs1 [MR-Y134, 2-(2-thenoyloxy)-benzoic acid]	47.51	127.69 Δ %	8.03	1.71	14.96	1.82	14.18	1.8	20.46	1.9	76.48	2.79	1.58	50.18	84.91 Δ %	9.36	8.9	18.94	7.96	15.68	height of plasma peak compared with sodium salicylate ([1]; rat, in vivo, po): substantially higher; persistence in the bloodstream ([1]; rat, in vivo, po): higher and more prolonged persistence in the bloodstream; time of plasma peak ([1]; rat, in vivo, po): third hour; gastro-injuring activity compared with ASA [4]: scarce gastro-injuring activity, substantially lower than the one of ASA; antiinflammatory activity compared with ASA ([2]; equal amounts by weight): good antiinflammatory activity, substantially equal to the one of ASA; Reaction time, 6h [3]: 8.28 s; Reaction time, Basal [3]: 9.82 s; analgesic activity compared with ASA ([3]; equal amounts by weight): three times higher than the one of ASA
